Molecular target: human HPK1 (MAP4K1) (Homo sapiens (Human), UniProt Q92918)
Assay: HPK1 IC50 Assay (TR-FRET peptide phosphorylation)
Assay type: biochemical
Method in brief: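 Readout: TR-FRET (665 nm/620 nm) after EDTA stop, detecting STK S1 peptide (1 μM) phosphorylation by 0.15 nM HPK1 kinase domain, ATP-pre-activated, at 10 μM ATP over 3 h, 25° C, pH 7.0. IC50s from four-parameter variable-slope fits, normalized to staurosporine and DMSO, averaged geometrically.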

[1] = 0.15 nM HPK1, 10 μM ATP, 1 μM STK S1 peptide substrate, geometric mean
[2] = recombinant HPK1 kinase domain 0.15 nM, 10 μM ATP, 1 μM STK S1 peptide, geometric mean of multiple experiments

human HPK1 (MAP4K1), sequence (Q92918 17-274): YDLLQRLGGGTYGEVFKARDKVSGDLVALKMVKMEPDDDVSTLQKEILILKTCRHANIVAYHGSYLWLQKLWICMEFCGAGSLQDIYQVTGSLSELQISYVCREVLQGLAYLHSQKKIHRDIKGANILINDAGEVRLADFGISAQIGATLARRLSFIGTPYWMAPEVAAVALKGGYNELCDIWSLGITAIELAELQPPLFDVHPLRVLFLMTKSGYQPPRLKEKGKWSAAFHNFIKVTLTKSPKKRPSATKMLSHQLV

| SMILES | IC50 [1] [nM] | IC50 [2] [nM] |
| --- | --- | --- |
| CC(C)n1cnc2cc(-c3cc4c(nc3F)C(C)(C)C(=O)N4[C@H]3C[C@@](C)(N4CCCCC4)C3)nc(Nc3cc(C(=O)NC4(C(F)F)CC4)c(Cl)c(F)c3F)c21 [Example 291, 2-chloro-N-(1-(difluoromethyl)cyclopropyl)-3,4-difluoro-5-((6-(5-fluoro-3,3-dimethyl-1-((1s,3s)-3-methyl-3-(piperidin-1-yl)cyclobutyl)-2-oxo-2,3-dihydro-1H-pyrrolo[3,2-b]pyridin-6-yl)-3-isopropyl-3H-imidazo[4,5-c]pyridin-4-yl)amino)benzamide] | 0.08 |  |
| Cc1cc(F)c(Nc2nc(-c3cnc4c(c3)N([C@H]3C[C@@](C)(N5CCCCC5)C3)CC4(C)C)cc3ncn(C(C)C)c23)cc1C(=O)NC1(C(F)F)CC1 [Example 219, N-(1-(Difluoromethyl)cyclopropyl)-5-((6-(3,3-dimethyl-1-((1s,3s)-3-methyl-3-(piperidin-1-yl)cyclobutyl)-2,3-dihydro-1H-pyrrolo[3,2-b]pyridin-6-yl)-3-isopropyl-3H-imidazo[4,5-c]pyridin-4-yl)amino)-4-fluoro-2-methylbenzamide] |  | 0.2 |
| CC(C)NC(=O)c1cc(Nc2nc(-c3ccc4c(c3)N([C@H]3C[C@@H](N5CCCCC5)C3)C(=O)C4(C)C)cc3ncn(C(C)C)c23)c(F)cc1Cl [Example 117] |  | 0.2 |
| CCNC(=O)c1cc(Nc2nc(-c3ccc4c(c3)N([C@H]3C[C@@H](N5CCCCC5)C3)C(=O)C43CCN(C4COC4)CC3)cc3ncn(C(C)C)c23)c(F)cc1C [Example 69] |  | 0.1 |
| CC(=O)N1CCC2(CC1)C(=O)N([C@H]1C[C@@H](N3CCCCC3)C1)c1cc(-c3cc4ncn(C(C)C)c4c(Nc4cc(C(=O)NC5CCC5)c(C)cc4F)n3)ccc12 [Example 76] |  | 0.2 |
| CC(C)n1cnc2cc(-c3cnc4c(c3)N([C@H]3C[C@@](C)(N5CCCCCC5)C3)C(=O)C4(C)C)nc(Nc3cc(C(=O)NCC(F)F)c(Cl)c(F)c3F)c21 [Example 248, 5-((6-(1-((1s,3s)-3-(azepan-1-yl)-3-methylcyclobutyl)-3,3-dimethyl-2-oxo-2,3-dihydro-1H-pyrrolo[3,2-b]pyridin-6-yl)-3-isopropyl-3H-imidazo[4,5-c]pyridin-4-yl)amino)-2-chloro-N-(2,2-difluoroethyl)-3,4-difluorobenzamide] |  | 0.05 |
| CNC(=O)c1cc(Nc2nc(-c3ccc4c(c3)N([C@H]3C[C@@H](N5CCCCC5)C3)C(=O)C43CCN(C(=O)[C@@H](C)O)CC3)cc3ncn(C(C)C)c23)ccc1C [Example 147] |  | 0.2 |
| COCCNC(=O)c1cc(Nc2nc(-c3ccc4c(c3)N([C@H]3C[C@@H](N5CCCCC5)C3)C(=O)C4(C)C)cc3ncn(C(C)C)c23)c(F)cc1C [Example 116] |  | 0.2 |
| CNC(=O)c1cc(Nc2nc(-c3ccc4c(c3)N([C@H]3C[C@@H](N5CCCCC5)C3)C(=O)C43CCN(C(C)=O)CC3)cc3ncn(C4CC4)c23)ccc1C [Example 58a] |  | 0.1 |
| CNC(=O)c1cc(Nc2nc(-c3ccc4c(c3)N([C@H]3C[C@@H](N5CC6CCC(C5)O6)C3)C(=O)C4(C)C)cc3ncn(C(C)C)c23)c(F)cc1C [Example 10] |  | 0.1 |
| CNC(=O)c1cc(Nc2nc(-c3ccc4c(c3)N([C@H]3C[C@@H](N5CCCCC5)C3)C(=O)C4(C)C)cc3ncn(C(C)C)c23)ccc1C(F)(F)F [Example 141] |  | 0.07 |
| Cc1c(C(=O)NC2(C(F)F)CC2)cc(Nc2nc(-c3cnc4c(c3)N(C3CC(C)(N5CCC6C[C@@H]6C5)C3)C(=O)C4(C)C)cc3ncn(C(C)C)c23)c(F)c1F (stereo partly shown) [Example 231, 5-((6-(1-((1s,3s)-3-(3-Azabicyclo[4.1.0]heptan-3-yl)-3-methylcyclobutyl)-3,3-dimethyl-2-oxo-2,3-dihydro-1H-pyrrolo[3,2-b]pyridin-6-yl)-3-isopropyl-3H-imidazo[4,5-c]pyridin-4-yl)amino)-N-(1-(difluoromethyl)cyclopropyl)-3,4-difluoro-2-methylbenzamide] |  | 0.1 |
| CNC(=O)c1cc(Nc2nc(-c3ccc4c(c3)N([C@H]3C[C@@H](N5CCCCC5)C3)C(=O)C43CCN(C(C)=O)CC3)cc3ncn(C4CC4)c23)c(F)cc1C [Example 95] |  | 0.3 |
| CNC(=O)c1cc(Nc2nc(-c3ccc4c(c3)N([C@H]3C[C@@H](N5CCCCC5)C3)C(=O)C4(C)C)cc3ncn(C(C)C)c23)c(F)cc1C [Example 175] |  | 0.1 |
| CCNC(=O)c1cc(Nc2nc(-c3cc4c(nc3F)C(C)(C)C(=O)N4[C@H]3C[C@@](C)(N4CCCCC4)C3)cc3ncn(C(C)C)c23)c(F)c(F)c1C [Example 271, N-ethyl-3,4-difluoro-5-((6-(5-fluoro-3,3-dimethyl-1-((1s,3s)-3-methyl-3-(piperidin-1-yl)cyclobutyl)-2-oxo-2,3-dihydro-1H-pyrrolo[3,2-b]pyridin-6-yl)-3-isopropyl-3H-imidazo[4,5-c]pyridin-4-yl)amino)-2-methylbenzamide] | 0.06 |  |
| Cc1ccc(Nc2nc(-c3ccc4c(c3)N([C@H]3C[C@@H](N5CCCCC5)C3)C(=O)C4(C)C)cc3ncn(C(C)C)c23)cc1C(=O)NC(CF)CF [Example 31] |  | 0.08 |

| SMILES | IC50 [1] [nM] | IC50 [2] [nM] |
| --- | --- | --- |
| CC(C)n1cnc2cc(-c3cnc4c(c3)N([C@H]3C[C@@](C)(N5CC6CCC6C5)C3)C(=O)C4(C)C)nc(Nc3cc(C(=O)NC4(C(F)F)CC4)c(Cl)c(F)c3F)c21 (stereo partly shown) [Example 205, 5-((6-(1-((1s,3s)-3-(3-Azabicyclo[3.2.0]heptan-3-yl)-3-methylcyclobutyl)-3,3-dimethyl-2-oxo-2,3-dihydro-1H-pyrrolo[3,2-b]pyridin-6-yl)-3-isopropyl-3H-imidazo[4,5-c]pyridin-4-yl)amino)-2-chloro-N-(1-(difluoromethyl)cyclopropyl)-3,4-difluorobenzamide] |  | 0.1 |
| CCc1ccc(Nc2nc(-c3ccc4c(c3)N([C@H]3C[C@@H](N5CCCCC5)C3)C(=O)C4(C)C)cc3ncn(C(C)C)c23)cc1C(=O)NC [Example 143] |  | 0.06 |
| CC(C)n1cnc2cc(-c3cnc4c(c3)N(C3CC(C)(N5CCC6C[C@@H]6C5)C3)C(=O)C4(C)C)nc(Nc3cc(C(=O)NC4(C(F)F)CC4)c(Cl)c(F)c3F)c21 (stereo partly shown) [Example 262, 5-((6-(1-((1s,3s)-3-(3-azabicyclo[4.1.0]heptan-3-yl)-3-methylcyclobutyl)-3,3-dimethyl-2-oxo-2,3-dihydro-1H-pyrrolo[3,2-b]pyridin-6-yl)-3-isopropyl-3H-imidazo[4,5-c]pyridin-4-yl)amino)-2-chloro-N-(1-(difluoromethyl)cyclopropyl)-3,4-difluorobenzamide] |  | 0.1 |
| COCCNC(=O)c1cc(Nc2nc(-c3ccc4c(c3)N([C@H]3C[C@@H](N5CCCCC5)C3)C(=O)C43CCN(C(C)=O)CC3)cc3ncn(C(C)C)c23)c(F)cc1C [Example 86] |  | 0.2 |
| CC(C)n1cnc2cc(-c3cnc4c(c3)N([C@H]3C[C@@](C)(N5CCCCC5)C3)C(=O)C4(C)C)nc(Nc3cc(C(=O)NCC(F)F)c(Cl)c(F)c3F)c21 [Example 250, 2-chloro-N-(2,2-difluoroethyl)-5-((6-(3,3-dimethyl-1-((1s,3s)-3-methyl-3-(piperidin-1-yl)cyclobutyl)-2-oxo-2,3-dihydro-1H-pyrrolo[3,2-b]pyridin-6-yl)-3-isopropyl-3H-imidazo[4,5-c]pyridin-4-yl)amino)-3,4-difluorobenzamide] |  | 0.1 |
| CNC(=O)c1cc(Nc2nc(-c3ccc4c(c3)N([C@H]3C[C@@H](N5CCCCC5)C3)C(=O)C43CCN(C(=O)C4(C)CCC4)CC3)cc3ncn(C4CC4)c23)ccc1C [Example 149] |  | 0.1 |
| CNC(=O)c1cc(Nc2nc(-c3ccc4c(c3)N([C@H]3C[C@@H](NC(C)C)C3)C(=O)C4(C)C)cc3ncn(C(C)C)c23)ccc1C [Example 11] |  | 0.1 |
| CNC(=O)c1cc(Nc2nc(-c3ccc4c(c3)N([C@H]3C[C@@H](N5CCC(C)(C)C5)C3)C(=O)C43CCN(C(C)=O)CC3)cc3ncn(C(C)C)c23)ccc1C [Example 165] |  | 0.1 |
| CNC(=O)c1cc(Nc2nc(-c3ccc4c(c3)N([C@H]3C[C@@H](N5CCCCC5)C3)C(=O)C43CN(C(C)=O)C3)cc3ncn(C(C)C)c23)c(F)cc1C [Example 177] |  | 0.4 |
| CNC(=O)c1cc(Nc2nc(-c3ccc4c(c3)N([C@H]3C[C@@H](N5CCCCC5)C3)C(=O)C4(C)C)cc3ncn(C4CC4)c23)ccc1Cl [Example 40] |  | 0.1 |
| Cc1ccc(Nc2nc(-c3ccc4c(c3)N([C@H]3C[C@@H](N5CCCCC5)C3)C(=O)C4(F)F)cc3ncn(C4CC4)c23)cc1C(N)=O [Example 184] |  | 0.9 |
| CNC(=O)c1cc(Nc2nc(-c3ccc4c(c3)N([C@H]3C[C@@H](N5CCCCC5)C3)C(=O)C43CCN(C(=O)OC)CC3)cc3ncn(C4CC4)c23)ccc1C [Example 50] |  | 0.1 |
| CCNC(=O)c1cc(Nc2nc(-c3cnc4c(c3)N([C@H]3C[C@@](C)(N5CCCCC5)C3)C(=O)C4(C)C)cc3ncn(C(C)C)c23)c(F)c(F)c1C [Example 222, 5-((6-(3,3-Dimethyl-1-((1s,3s)-3-methyl-3-(piperidin-1-yl)cyclobutyl)-2-oxo-2,3-dihydro-1H-pyrrolo[3,2-b]pyridin-6-yl)-3-isopropyl-3H-imidazo[4,5-c]pyridin-4-yl)amino)-N-ethyl-3,4-difluoro-2-methylbenzamide] |  | 0.06 |
| CNC(=O)c1cc(Nc2nc(-c3ccc4c(c3)N([C@H]3C[C@@H](N5CCOCC5)C3)C(=O)C4(C)C)cc3ncn(C(C)C)c23)ccc1C [Example 39] |  | 0.1 |
| CC(C)n1cnc2cc(-c3cnc4c(c3)N([C@H]3C[C@@](C)(N5CCCCC5)C3)C(=O)C4(C)C)nc(Nc3cc(C(=O)NC4(C(F)(F)F)CC4)c(Cl)c(F)c3F)c21 [Example 204, 2-Chloro-5-((6-(3,3-dimethyl-1-((1s,3s)-3-methyl-3-(piperidin-1-yl)cyclobutyl)-2-oxo-2,3-dihydro-1H-pyrrolo[3,2-b]pyridin-6-yl)-3-isopropyl-3H-imidazo[4,5-c]pyridin-4-yl)amino)-3,4-difluoro-N-(1-(trifluoromethyl)cyclopropyl)benzamide] |  | 0.2 |
